Square brackets hold non-standard residues; d marks the D form. Ends that are not written are not given here. Peptide text beside a SMILES is read from it. Sar = CNCC(=O)O
Columns and labels:
[1] = system: complement activation in factor B-depleted human sera; type: biochemical
Method: Peptides were diluted to 0.77 mM in factor B-depleted human sera (Complement Technologies, Inc.) and incubated for 1 hour at 37° C. These peptides were then diluted with GVBS^++ to equal 2.5/s serum, of which 0.25 ml was combined with 0.4 ml of GVBS^++ and 0.1 ml of sensitized sheep red blood cells (RBCs) and again incubated for 1 hour at 37° C. The procedure was stopped by the addition of 4.0 ml of GVBS^−−, centrifuged for 5 minutes at 1,620×g, and the absorbance of the supernatants was read at 412 nm in a spectrophotometer. The percent lysis of each sample was standardized to that of the serum only control.
The final concentration of peptide in factor B-depleted serum was 0.77 mM. Each peptide was evaluated in triplicate and the mean values are reported. […] In the hemolytic assay, soluble peptides are standardized to water and insoluble peptides standardized to DMSO.
Polar Assortant peptides were serially diluted in undiluted factor B-depleted human sera (Complement Technologies, Inc.) and incubated for 1 hour at 37° C. Water, GVBS^++ and DMSO were included as controls. These peptides were then diluted with GVBS^++ to equal 2.5/s serum, of which 0.25 ml was combined with 0.4 ml of GVBS^++ and 0.1 ml of sensitized sheep red blood cells (RBCs) and again incubated for 1 hour at 37° C. The procedure was stopped by the addition of 4.0 ml of GVBS^−−, centrifuged for 5 minutes at 1,620×g, and the absorbance of the supernatants was read at 412 nm in a spectrophotometer. The percent lysis of each sample was standardized to that of the serum only control.
The final concentration of peptide in factor B-depleted serum was 0.77 mM. […] In the hemolytic assay, soluble peptides were standardized to water and insoluble peptides standardized to DMSO.
The final concentration of peptide in factor B-depleted serum was 0.77 mM. […] In the hemolytic assay, soluble peptides are standardized to water and insoluble peptides standardized to DMSO.

Solubility in water = type: physicochemical
[2] = Table 5, sarcosine substitution peptides
[3] = Table 7, PEGylated and sarcosine/alanine substitution peptides

## CC[C@H](C)[C@H](N)C(=O)N[C@@H](C)C(=O)N[C@@H](CC(C)C)C(=O)N[C@H](C(=O)N[C@@H](CC(C)C)C(=O)N[C@@H](CCC(=O)O)C(=O)N1CCC[C@H]1C(=O)N(C)CC(=O)N[C@@H](CS)C(=O)N[C@@H](CS)C(=O)N[C@@H](CCC(N)=O)C(=O)N[C@@H](CCC(=O)O)C(=O)N[C@@H](CCCNC(=N)N)C(=O)N[C@@H](C)C(=O)N[C@@H](C)C(=O)O)[C@@H](C)CC [PA-I8Sar, IALILEP(Sar)CCQERAA]
[1]
  Hemolysis (%): 33.92%
Solubility in water; [2]
  Solubility in water: Yes

## CC[C@H](C)[C@H](N)C(=O)N[C@@H](C)C(=O)N[C@@H](CC(C)C)C(=O)N[C@H](C(=O)N[C@@H](CC(C)C)C(=O)N[C@@H](CCC(=O)O)C(=O)N1CCC[C@H]1C(=O)N[C@H](C(=O)N[C@@H](CS)C(=O)N[C@@H](CS)C(=O)N[C@@H](CCC(N)=O)C(=O)N[C@@H](CCC(=O)O)C(=O)N[C@@H](CCCNC(=N)N)C(=O)N[C@@H](C)C(=O)N(C)CC(=O)O)[C@@H](C)CC)[C@@H](C)CC [PA-A15Sar]
[1]
  Hemolysis (%): 21.68%
Solubility in water; [2]
  Solubility in water: No

## CC[C@H](C)[C@H](N)C(=O)N[C@@H](C)C(=O)N[C@@H](CC(C)C)C(=O)N[C@H](C(=O)N[C@@H](CC(C)C)C(=O)N[C@@H](CCC(=O)O)C(=O)N1CCC[C@H]1C(=O)N[C@H](C(=O)N(C)CC(=O)N[C@@H](CS)C(=O)N[C@@H](CCC(N)=O)C(=O)N[C@@H](CCC(=O)O)C(=O)N[C@@H](CCCNC(=N)N)C(=O)N[C@@H](C)C(=O)N[C@@H](C)C(=O)O)[C@@H](C)CC)[C@@H](C)CC [PA-C9Sar] (H-IALILEPI[Sar]CQERAA-OH; N-terminus and C-terminus assumed)
[1]
  Hemolysis (%): 5.63%
Solubility in water
  solubility in water / aqueous solutions: water soluble
Solubility in water; [2]
  Solubility in water: Yes

## dPEG24-IALILEPICCQERAA-dPEG24 (cysteine pairing not given here) [dPEG24-PA-dPEG24]
[1]; factor B depleted serum
  inhibition of complement activity in hemolytic assay: varying degrees of complement inhibition
Solubility in water
  solubility in water / aqueous solutions: soluble in water

## CC[C@H](C)[C@H](NC(=O)[C@H](CC(C)C)NC(=O)[C@H](C)NC(=O)CNC)C(=O)N[C@@H](CC(C)C)C(=O)N[C@@H](CCC(=O)O)C(=O)N1CCC[C@H]1C(=O)N[C@H](C(=O)N[C@@H](CS)C(=O)N[C@@H](CS)C(=O)N[C@@H](CCC(N)=O)C(=O)N[C@@H](CCC(=O)O)C(=O)N[C@@H](CCCNC(=N)N)C(=O)N[C@@H](C)C(=O)N[C@@H](C)C(=O)O)[C@@H](C)CC [PA-I1Sar]
[1]
  Hemolysis (%): 84.49%
Solubility in water; [2]
  Solubility in water: No

## CC[C@H](C)[C@H](N)C(=O)N[C@@H](C)C(=O)N[C@@H](CC(C)C)C(=O)N[C@H](C(=O)N[C@@H](CC(C)C)C(=O)N[C@@H](C)C(=O)N(C)CC(=O)N[C@H](C(=O)N[C@@H](CS)C(=O)N[C@@H](CS)C(=O)N[C@@H](CCC(N)=O)C(=O)N[C@@H](C)C(=O)N[C@@H](CCCNC(=N)N)C(=O)N[C@@H](C)C(=O)N[C@@H](C)C(=O)O)[C@@H](C)CC)[C@@H](C)CC [Peptide E6AE12AP7Sar] (H-IALILA[Sar]ICCQARAA-OH; N-terminus and C-terminus assumed)
[1]
  Hemolysis (%): 4.60%
Solubility in water; [3]
  Solubility in water: Yes

## CC[C@H](C)[C@H](N)C(=O)N[C@@H](C)C(=O)N[C@@H](CC(C)C)C(=O)N[C@H](C(=O)N[C@@H](CC(C)C)C(=O)N[C@@H](CCC(=O)O)C(=O)N1CCC[C@H]1C(=O)N[C@H](C(=O)N[C@@H](CS)C(=O)N[C@@H](CS)C(=O)N(C)CC(=O)N[C@@H](CCC(=O)O)C(=O)N[C@@H](CCCNC(=N)N)C(=O)N[C@@H](C)C(=O)N[C@@H](C)C(=O)NCCOCCOCCOCCOCCOCCOCCOCCOCCOCCOCCOCCOCCOCCOCCOCCOCCOCCOCCOCCOCCOCCOCCOCCOCCC(=O)O)[C@@H](C)CC)[C@@H](C)CC [PA-Q11Sar-dPEG24]
[1]
  Hemolysis (%): 12.04%
Solubility in water; [3]
  Solubility in water: Yes

## CC[C@H](C)[C@H](N)C(=O)N[C@@H](C)C(=O)N[C@@H](CC(C)C)C(=O)N[C@H](C(=O)N(C)CC(=O)N[C@@H](CCC(=O)O)C(=O)N1CCC[C@H]1C(=O)N[C@H](C(=O)N[C@@H](CS)C(=O)N[C@@H](CS)C(=O)N[C@@H](CCC(N)=O)C(=O)N[C@@H](CCC(=O)O)C(=O)N[C@@H](CCCNC(=N)N)C(=O)N[C@@H](C)C(=O)N[C@@H](C)C(=O)O)[C@@H](C)CC)[C@@H](C)CC [PA-L5Sar] (H-IALI[Sar]EPICCQERAA-OH; N-terminus and C-terminus assumed)
[1]
  Hemolysis (%): 85.13%
Solubility in water; [2]
  Solubility in water: Yes

## ALILEPICC[Sar]ERAA (cysteine pairing not given here) [PA-Q11Sar]
[1]
  Hemolysis (%): 3.02%
Solubility in water; [2]
  Solubility in water: No

## CC[C@H](C)[C@H](N)C(=O)N[C@@H](C)C(=O)N[C@@H](CC(C)C)C(=O)N[C@H](C(=O)N[C@@H](CC(C)C)C(=O)N[C@@H](C)C(=O)N1CCC[C@H]1C(=O)N[C@H](C(=O)N(C)CC(=O)N[C@@H](CS)C(=O)N[C@@H](CCC(N)=O)C(=O)N[C@@H](C)C(=O)N[C@@H](CCCNC(=N)N)C(=O)N[C@@H](C)C(=O)N[C@@H](C)C(=O)O)[C@@H](C)CC)[C@@H](C)CC [Peptide E6AE12AC9Sar] (H-IALILAPI[Sar]CQARAA-OH)
[1]
  Hemolysis (%): 2.99%
Solubility in water; [3]
  Solubility in water: No

## CC[C@H](C)[C@H](N)C(=O)N[C@@H](C)C(=O)N[C@@H](CC(C)C)C(=O)N(C)CC(=O)N[C@@H](CC(C)C)C(=O)N[C@@H](CCC(=O)O)C(=O)N1CCC[C@H]1C(=O)N[C@H](C(=O)N[C@@H](CS)C(=O)N[C@@H](CS)C(=O)N[C@@H](CCC(N)=O)C(=O)N[C@@H](CCC(=O)O)C(=O)N[C@@H](CCCNC(=N)N)C(=O)N[C@@H](C)C(=O)N[C@@H](C)C(=O)O)[C@@H](C)CC [PA-I4Sar] (H-IAL[Sar]LEPICCQERAA-OH; N-terminus and C-terminus assumed)
[1]
  Hemolysis (%): 93.19%
Solubility in water; [2]
  Solubility in water: Yes

## CC[C@H](C)[C@H](N)C(=O)N[C@@H](C)C(=O)N[C@@H](CC(C)C)C(=O)N[C@H](C(=O)N[C@@H](CC(C)C)C(=O)N(C)CC(=O)N(C)CC(=O)N[C@H](C(=O)N[C@@H](CS)C(=O)N[C@@H](CS)C(=O)N[C@@H](CCC(N)=O)C(=O)N[C@@H](CCC(=O)O)C(=O)N[C@@H](CCCNC(=N)N)C(=O)N[C@@H](C)C(=O)N[C@@H](C)C(=O)O)[C@@H](C)CC)[C@@H](C)CC [Peptide E6SarP7Sar] (H-IALIL[Sar][Sar]ICCQERAA-OH; N-terminus and C-terminus assumed)
[1]
  Hemolysis (%): 3.57%
Solubility in water; [3]
  Solubility in water: Yes

## CC[C@H](C)[C@H](N)C(=O)N[C@@H](C)C(=O)N[C@@H](CC(C)C)C(=O)N[C@H](C(=O)N[C@@H](CC(C)C)C(=O)N[C@@H](CCC(=O)O)C(=O)N(C)CC(=O)N[C@H](C(=O)N[C@@H](CS)C(=O)N[C@@H](CS)C(=O)N[C@@H](CCC(N)=O)C(=O)N[C@@H](CCC(=O)O)C(=O)N(C)CC(=O)N[C@@H](C)C(=O)N[C@@H](C)C(=O)O)[C@@H](C)CC)[C@@H](C)CC [Peptide R13SarP7Sar, IALILE(Sar)ICCQE(Sar)AA] (H-IALILE[Sar]ICCQE[Sar]AA-OH)
[1]
  Hemolysis (%): 26.35%
Solubility in water; [3]
  Solubility in water: No

## CC[C@H](C)[C@H](N)C(=O)N[C@@H](C)C(=O)N[C@@H](CC(C)C)C(=O)N[C@H](C(=O)N[C@@H](CC(C)C)C(=O)N[C@@H](CCC(=O)O)C(=O)N1CCC[C@H]1C(=O)N[C@H](C(=O)N[C@@H](CS)C(=O)N[C@@H](CS)C(=O)N[C@@H](CCC(N)=O)C(=O)N[C@@H](CCC(=O)O)C(=O)N[C@@H](CCCNC(=N)N)C(=O)N(C)CC(=O)N[C@@H](C)C(=O)O)[C@@H](C)CC)[C@@H](C)CC [PA-A14Sar]
[1]
  Hemolysis (%): 3.88%
Solubility in water; [2]
  Solubility in water: No
